Among the data in the NIST ThermoML archive (doi:10.1021/acs.jced.7b00171) are Solid-liquid equilibrium temperature values, retold here.

This series in a line: Solid-liquid equilibrium temperature. The conditions noted are these: Crystal 1, visual observation.

± gives the expanded uncertainty stated by the source.

As for `C1CCCCC1` [cyclohexane], the Solid-liquid equilibrium temperature turned out to be 280.31 ± 0.26 K (1310 kPa), 281.53 ± 0.34 K (3430 kPa) and 282.52 ± 0.41 K (5310 kPa).
